The record followed here is patent publication US11180522B2, “Disulfide-linked reversible terminators” (Centrillion Technology Holdings Corporation, priority 2015, dated 2021).

Assay [1] deals with Bst polymerase. Particulars: incubation with 100 mM TCEP pH9.0, 65° C., 30 minutes.
Experimental: Primer extension: For reactions with CENT1 enzyme, the enzyme was boiled for 5 minutes at 95° C. before use. 40 uL of hybridized beads were resuspended in 22.5 uL of reaction mixture (40 mM Tris-HCl pH8.8, 20 mM ammonium sulfate, 20 mM KCl, 0.2% Triton X-100, 2 mM MgSO4, 1.5 ug CENT1). Reactions were pre-warmed to 45° C. for one minute before adding 2.5 uL of 20 uM nucleotide (for a final concentration of 2 uM). After one minute of incorporation, reactions were quenched with 40 μL RB. Beads were washed with 40 μL RB and either resuspended in a new reaction mixture for further incorporation events or SP_T was eluted with 0.1 N NaOH for 10 minutes at room temperature then neutralized with 1.5 uL Tris-HCl pH8.0. For reactions with Bst large fragment (NEB), 40 uL of hybridized beads were resuspended in 22.5 uL of reaction mixture (40 mM Tris-HCl pH8.8, 20 mM ammonium sulfate, 20 mM KCl, 0.2% Triton X-100, 2 mM MgSO4, 40 U Bst). Reactions were pre-warmed to 37° C. for one minute before adding 2.5 uL of 1 mM dNTPs (NEB) (for a final concentration of 100 uM). After five minutes at 37° C., reactions were quenched with 40 μL RB. Beads were washed with 40 μL RB and SP_T was eluted with 0.1N NaOH for 10 minutes at room temperature then neutralized with 1.5 uL Tris-HCl pH8.0.
Cleavage of Reversible Terminators: After incorporation of reversible terminators, beads were resuspended in 100 mM TCEP pH9.0 (Gold Bio) and incubated at 65° C. for 30 minutes before quenching with 100 μL RB. Beads were washed with 40 μL RB and either resuspended in a new reaction mixture for further incorporation events or SP_T was eluted with 0.1N NaOH for 10 minutes at room temperature then neutralized with 1.5 uL Tris-HCl pH8.0.
For assay [2], the system named is DNA polymerase CENT1. The assay is described as follows: Primer extension assay with DNA polymerase CENT1. Type of assay: biochemical. Particulars: 2 uM nucleotide, 45° C., one minute, denaturing PAGE. As to the method:
(§1) Oligo Preparation: Oligos were purchased from IDT and stored at 500 uM in nuclease-free water: A biotinylated target sequence (Biot_Primer1_Capt, 5′-/5Biosg/[…] TTTCAG-3′ (SEQ ID NO: 1)) and a sequencing primer (SP_T, 5′-[…]-3′ (SEQ ID NO: 2)). 8 nmol of the biotinylated template sequence was conjugated to streptavidin-coated magnetic beads (T1 Dynabeads, Invitrogen) for one hour at room temperature in a solution containing 1M NaCl, 10 mM Tris-HCl pH7.5, 1 mM EDTA. Beads were washed three times with wash buffer at 60° C. (0.64×SSC, 0.016% SDS) to remove unbound primer and stored in 800 μL reaction binding buffer, RB, (1M NaCl, 25 mM Tris-HCl pH7.5, 0.01% TWEEN20) at 4° C. To hybridize the sequencing primer to the template, 100 uL of conjugated beads were incubated with a saturating amount of SP_T (2.5 nmol) in 200 μL RB at 70° C. for five minutes, 55° C. for 15 minutes, then 25° C. for 5 minutes. Hybridized beads were stored in 360 uL RB at room temperature.

In assay [3] the test system is Bst polymerase. Particulars: "runaway" reaction with Bst polymerase, 100 uM dNTPs, 37° C., before TCEP treatment.
Experimental: For reactions with Bst large fragment (NEB), 40 uL of hybridized beads were resuspended in 22.5 uL of reaction mixture (40 mM Tris-HCl pH8.8, 20 mM ammonium sulfate, 20 mM KCl, 0.2% Triton X-100, 2 mM MgSO4, 40 U Bst). Reactions were pre-warmed to 37° C. for one minute before adding 2.5 uL of 1 mM dNTPs (NEB) (for a final concentration of 100 uM). After five minutes at 37° C., reactions were quenched with 40 μL RB. Beads were washed with 40 μL RB and SP_T was eluted with 0.1N NaOH for 10 minutes at room temperature then neutralized with 1.5 uL Tris-HCl pH8.0.
Denaturing PAGE: An equal volume of 2×TBE-Urea Sample Buffer (Novex, Thermo Fisher) was added to samples before heat-denaturation for five minutes at 85° C. 10 μL sample and a 10 bp ladder (TrackIt, Invitrogen) on a 15% TBE-Urea PAGE gel (Novex, Thermo Fisher) in 1×TBE for two hours at 160V. Gels were imaged for fluorescence before staining and again after staining with SYBR Gold (Thermo) on an AlphaImager 3400.
In assay [4] the test system is enhanced DNA polymerase (EDP). The assay is described as follows: Primer extension assay with enhanced DNA polymerase (EDP). Particulars: denaturing PAGE, FIG. 12. The assay is classed as biochemical. As to the method:
as §1

Regarding `[N-]=[N+]=NCOC1C[C@H](n2cc(C#CCNC(=O)OCCSSCCNC(=O)c3ccc(-c4c5ccc(=O)cc-5oc5cc(O)ccc45)c(C(=O)O)c3)c(=O)[nH]c2=O)O[C@@H]1COP(=O)(O)OP(=O)(O)OP(=O)(O)O` (stereo partly drawn) [compound 33, 3′-O-azidomethyl-5-(Fluorescein-dithiolinker-cabamate)-2′-deoxyuridinetriphosphate], the “De-blocking (removal of 3′-azidomethyl cap, extension resumes)” value (“De-blocking” for short) in assay [1] is reported as “De-blocking was accomplished”. The “Primer extension (incorporation of the terminator into the growing DNA chain) catalyzed by CENT1” value (from here on “Primer extension … by CENT1”) in assay [2] was “extension was catalyzed”. In assay [3], the “Blocking of further extension after terminator incorporation” value is “Blocking of further extension after terminator incorporation is observed”.
Turning to `CC(C)(C)OC(=O)NCCSSCCOC(=O)NCC#Cc1cn([C@H]2CC(OCN=[N+]=[N-])[C@@H](COP(=O)(O)OP(=O)(O)OP(=O)(O)O)O2)c(=O)[nH]c1=O` (stereo partly drawn) [compound 31], in assay [4], the “Primer extension (incorporation of the terminator) catalyzed by EDP” value is “extension was catalyzed”. The “De-blocking” value in assay [1] is reported as “De-blocking was accomplished”. Also, in assay [2], the “Primer extension … by CENT1” value is “extension was catalyzed”.
Consider “3′-O-azidomethyl-5-(Alexa530-dithiolinker-carbamate)-dUTP [compound 34]”, for which the “De-blocking” value in assay [1] is “De-blocking was accomplished”. Also, in assay [2], the “Primer extension … by CENT1” value is listed as “extension was catalyzed”. Further, the “Blocking of further extension after terminator incorporation” value in assay [3] is given as “Blocking of further extension after terminator incorporation is observed”.
